≈ marks a conversion by molar mass, not a printed value. Read-outs that look alike come from different tables or passages of the source.
How the values were obtained:
RVFV [1] = assay: microbe, parasite or virus in culture; assay type: cell-based; settings: Rift Valley fever virus, SW13, read-out: IC50 RVFV
[2] = Cytotoxicity assay, BHK-21 cells; settings: hamster, BHK-21 cells, CC50, Hamster BHK-21 cells; value repeated under each virus
HAZV = assay: microbe, parasite or virus in culture; assay type: cell-based; settings: Hazara virus, Vero C1008, read-out: IC50 HAZV
TBEV [3] = assay: microbe, parasite or virus in culture; assay type: cell-based; settings: Tick-borne encephalitis virus, SW13, read-out: IC50 TBEV
Solubility in PBS pH 7.4 = settings: PBS pH 7.4, 20 °C, pH 7.4, aqueous buffer
RVFV [4] = assay: microbe, parasite or virus in culture; assay type: cell-based; settings: Rift Valley fever virus, BHK-21, in Mesocricetus auratus, read-out: IC50 RVFV
[5] = Cytotoxicity assay, SW13 cells; settings: human
TAHV = assay: microbe, parasite or virus in culture; assay type: cell-based; settings: Tahyna virus, Vero C1008, read-out: IC50 TAHV
Plasma stability = settings: 1 μm, 37° C., mouse plasma diluted with 1 volume of PBS pH 7.4
[6] = Cytotoxicity assay, L929 cells; settings: mouse
Plasma protein binding = settings: mouse, plasma diluted with 1 volume of PBS pH 7.4, pH 7.4
YFV [7] = assay: microbe, parasite or virus in culture; assay type: cell-based; settings: Yellow fever virus, Vero C1008, read-out: IC50 YFV
[8] = Cytotoxicity assay (CellTiter-Blue), HEK-293 cells; settings: human
VEEV [9] = assay: microbe, parasite or virus in culture; assay type: cell-based; settings: Venezuelan equine encephalitis virus, SW13, read-out: IC50 VEEV
RVFV [10] = assay: microbe, parasite or virus in culture; assay type: cell-based; settings: Rift Valley fever virus, Vero C1008, read-out: IC50 RVFV
TBEV [11] = assay: microbe, parasite or virus in culture; assay type: cell-based; settings: Tick-borne encephalitis virus, L929, in Mus musculus, read-out: IC50 TBEV
[12] = Log D (PBS pH 7.4/octanol)
VEEV [13] = assay: microbe, parasite or virus in culture; assay type: cell-based; settings: Venezuelan equine encephalitis virus, BHK-21, in Mesocricetus auratus, read-out: IC50 VEEV
RVFV [14] = assay: microbe, parasite or virus in culture; assay type: cell-based; settings: Rift Valley fever virus, L929, in Mus musculus, read-out: IC50 RVFV
[15] = Cytotoxicity assay (CellTiter-Blue), Vero E6 cells; settings: for CC50 at 4 days: monkey (simian), Vero E6 cells, CC50, Simian Vero E6 cells, value repeated under each virus; for CC50: cell line not given
RVFV [16] = assay: microbe, parasite or virus in culture; assay type: cell-based; settings: Rift Valley fever virus, HEK293, read-out: IC50 RVFV
TBEV [17] = assay: microbe, parasite or virus in culture; assay type: cell-based; settings: Tick-borne encephalitis virus, Vero C1008, read-out: IC50 TBEV
VEEV [18] = assay: microbe, parasite or virus in culture; assay type: cell-based; settings: Venezuelan equine encephalitis virus, Vero C1008, read-out: IC50 VEEV
DENV = assay: Virus yield reduction assay, DENV in Vero E6 cells; assay type: cell-based; settings: Dengue virus, Vero C1008; Simian Vero E6 cells; FLAVI virus family
TOSV = assay: microbe, parasite or virus in culture; assay type: cell-based, Toscana virus
[19] = Metabolic stability in S9 fraction
ZIKV = assay: Virus yield reduction assay, ZIKV in Vero E6 cells; assay type: cell-based; settings: Zika virus, Vero C1008; Simian Vero E6 cells; FLAVI virus family
[20] = Hydrolysis study in mouse liver extract; settings: FIG. 1, FIG. 2
VEEV [21] = assay: microbe, parasite or virus in culture; assay type: cell-based; settings: Venezuelan equine encephalitis virus, HEK293, read-out: IC50 VEEV
VEEV [22] = assay: microbe, parasite or virus in culture; assay type: cell-based; settings: Venezuelan equine encephalitis virus, L929, in Mus musculus, read-out: IC50 VEEV
Vero E6 cells = assay: Cytotoxicity assay (CellTiter-Blue), Vero E6 cells; settings: Simian Vero E6 cells; value repeated under each virus
YFV [23] = assay: microbe, parasite or virus in culture; assay type: cell-based; settings: Yellow fever virus, BHK-21, in Mesocricetus auratus, read-out: IC50 YFV
[24] = Hepatic microsome stability; settings: 1 μm, 37° C., 0.5 mg/mL microsomes of mouse liver; cofactor: NADPH
TBEV [25] = assay: microbe, parasite or virus in culture; assay type: cell-based; settings: Tick-borne encephalitis virus, HEK293, read-out: IC50 TBEV
[26] = Toscana virus, Vero C1008, read-out: IC50 (TOSV)

Row | SMILES | IC50 (HAZV) [µM] | IC50 (TAHV) [µM] | CC50 [6] [µM] | IC50 (RVFV [10]) [µM] | IC50 (TBEV [11]) [µM] | CC50 at 4 days [15] [µM] | IC50 (TBEV [17]) [µM] | IC50 (VEEV [18]) [µM] | IC50 (TOSV; [26]) [µM] | CC50 [15] [µM] | IC50 (VEEV [22]) [µM] | other results
1 | Cc1ccc(NC(=O)COc2ccccc2Cc2ccccc2)c(C(=O)O)c1 [Example 1] | 0.05 | 0.17 | 60 | 0.09 | 0.08 | 60 ± 15 | 0.22 | 0.07 | 0.09 | – | – | IC50 (RVFV [1]): 0.28 µM; CC50 [2]: 140 µM; IC50 (TBEV [3]): 0.67 µM; solubility (Solubility in PBS pH 7.4): 167 ± 7 µM (≈ 62.7 µg/mL); IC50 (RVFV [4]): 0.7 ± 0.03 µM; CC50 [5]: 60 µM; Plasma stability [% remaining at 2 h] (Plasma stability): 75 ± 0 % remaining at 2 h; fraction unbound at 1 μM (Plasma protein binding): 0.01; IC50 (YFV [7]): 0.2 µM; CC50 at 3 days [8]: 80 µM; IC50 (VEEV [9]): 0.1 µM; logD [12]: 2.62 ± 0.03; IC50 (VEEV [13]): 0.36 µM; IC50 (RVFV [14]): 0.04 µM; IC50 (RVFV [16]): 0.04 ± 0.02 µM; IC50 (DENV): 0.19 µM
2 | O=C(O)c1ccccc1NC(=O)n1ccc2ccccc21 [Example 14] | – | – | – | – | – | – | – | – | 9 | 40 | – | –
3 | CCC(C)(C)c1ccccc1OCCOC(=O)Nc1ccccc1C(=O)O [Example 13] | – | – | – | – | – | – | – | – | 0.128 | > 25 | – | Metabolic stability in a S9 fraction (rat) [19]: high metabolic stability
4 | CCc1nc2cc(-c3ccc(-c4ccccc4)cc3)cc(C(=O)O)c2[nH]1 [Example 19] | – | – | – | – | – | – | – | – | 0.118 | 8 | – | –
5 | CCC(C)c1ccccc1OCCCC(=O)Nc1ccccc1C(=O)O (racemic) [Example 3] | 0.11 | 0.04 | – | 0.16 | 0.3 | 18.5 ± 1.5 | 0.08 | 0.03 | 0.07 ± 0.01 | – | 0.6 | IC50 (RVFV [1]): 0.05 µM; IC50 (TBEV [3]): 0.1 µM; solubility (Solubility in PBS pH 7.4): 1540 ± 50 µM (≈ 547 µg/mL); IC50 (ZIKV): 0.11 µM; Plasma stability [% remaining at 2 h] (Plasma stability): 85 ± 4 % remaining at 2 h; fraction unbound at 1 μM (Plasma protein binding): 0.01; IC50 (YFV [7]): 0.11 µM; IC50 (VEEV [9]): 0.13 µM; logD [12]: 2.59 ± 0.03; IC50 (RVFV [14]): 0.17 µM; Hydrolysis in mouse liver extract (amide bond stability) [20]: cleavage of the amide bond; IC50 (RVFV [16]): 0.015 µM; IC50 (DENV): 0.11 µM; IC50 (VEEV [21]): 0.05 µM
6 | CCC(=O)Nc1ccc(-c2ccc(-c3ccccc3)c(F)c2)cc1C(=O)O [Example 7] | 0.07 | 0.12 | 9 | 0.12 | 0.004 | 15 | 0.013 | 0.12 | 0.11 | – | 0.007 | IC50 (RVFV [14]): 0.0055 µM; IC50 (VEEV [21]): 0.014 µM
7 | CC(C)c1ccccc1SCC(=O)Nc1ccccc1C(=O)O [Example 2] | 0.7 ± 0.2 | 0.27 | – | ~2 | – | 110 ± 10 | – | – | 0.55 ± 0.05 | – | – | IC50 (RVFV [1]): 0.5 µM; IC50 (TBEV [3]): 0.93 µM; IC50 (YFV [7]): 0.7 ± 0.2 µM; IC50 (VEEV [9]): 1.5 µM; IC50 (RVFV [16]): 0.4 µM; IC50 (VEEV [21]): 0.45 µM
8 | O=C(COc1ccccc1Cc1ccccc1)Nc1ccc2c(c1C(=O)O)OC(F)(F)O2 [Example 17] | – | – | – | – | – | – | – | – | 6 | 32 | – | –
9 | COc1ccc(Nc2ccc(Oc3ccccc3)cc2)c(C(=O)O)c1 [Example 4] | 0.12 | 0.1 | 70 | 0.02 | 0.16 | 71 ± 1 | 0.12 | 0.06 | 0.08 | – | 0.22 | IC50 (RVFV [1]): 0.13 µM; CC50 [2]: 125 µM; IC50 (TBEV [3]): 0.38 µM; IC50 (RVFV [4]): 0.85 µM; CC50 [5]: 75 µM; IC50 (YFV [7]): 0.22 µM; CC50 at 3 days [8]: 125 µM; IC50 (VEEV [9]): 0.22 µM; IC50 (VEEV [13]): 1.3 µM; CC50 (Vero E6 cells): 37.9 µM; IC50 (DENV): 0.18 µM
10 | CCCCCc1ccc(C#Cc2ccc(NC(=O)CC)c(C(=O)O)c2)cc1 [Example 8, 5-((4-pentylphenyl)ethynyl)-2-propionamidobenzoic acid] | 0.008 | 0.01 | 5 | 0.006 | 0.0015 | 8 | 0.07 | 0.007 | 0.01 | – | 0.003 | IC50 (YFV [23]): 0.022 µM; IC50 (RVFV [1]): 0.008 µM; Hepatic microsome stability [% remaining at 1 h] [24]: 70 ± 3 % remaining at 1 h; CC50 [2]: 7.5 µM; IC50 (TBEV [3]): 0.013 µM; solubility (Solubility in PBS pH 7.4): 18 ± 6 µM (≈ 6.54 µg/mL); IC50 (RVFV [4]): 0.016 µM; CC50 [5]: 20 µM; IC50 (ZIKV): 0.009 µM; Plasma stability [% remaining at 2 h] (Plasma stability): 114 ± 5 % remaining at 2 h; IC50 (YFV [7]): 0.006 µM; IC50 (VEEV [9]): 0.013 µM; logD [12]: 4.6 ± 0.3; IC50 (RVFV [14]): 0.002 µM; IC50 (RVFV [16]): 0.0015 µM; IC50 (DENV): 0.005 µM; IC50 (VEEV [21]): 0.0015 µM; IC50 (TBEV [25]): 0.0031 µM
11 | CCC(C)c1ccccc1OCc1nc2ccc(C)cc2c(=O)o1 (stereo not drawn) [Example 20] | – | – | – | – | – | – | – | – | 0.6 | 75 | – | –
12 | CCC(C)c1ccccc1OCCOC(=O)Nc1ccccc1C(=O)O (stereo not drawn) [Example 12] | – | – | – | – | – | – | – | – | 0.19 | 51 | – | Metabolic stability in a S9 fraction (rat) [19]: high metabolic stability
13 | CCC(=O)Nc1ccc(-c2ccc(-c3ccccc3)cc2)cc1C(=O)O [Example 6] | 0.12 | – | 15 | 0.14 | 0.009 | 10 | 0.12 ± 0.01 | 0.12 | 0.12 | – | 0.009 | IC50 (YFV [23]): > 0.2 µM; Hepatic microsome stability [% remaining at 1 h] [24]: 49 ± 0 % remaining at 1 h; solubility (Solubility in PBS pH 7.4): 61 ± 17 µM (≈ 21.1 µg/mL); IC50 (RVFV [4]): > 0.2 µM; Plasma stability [% remaining at 2 h] (Plasma stability): 94 ± 6 % remaining at 2 h; logD [12]: 3.07 ± 0.05; IC50 (RVFV [14]): 0.003 µM; Hydrolysis in mouse liver extract (amide bond stability) [20]: more stable; IC50 (VEEV [21]): 0.019 µM
14 | CCC(C)c1ccccc1OCCCc1nc2ccc(F)cc2c(=O)o1 (stereo not drawn) [Example 22] | – | – | – | – | – | – | – | – | 0.3 | 17 | – | –
15 | CS(N)(=O)=O [methyl sulfonamide] | – | – | – | – | – | – | – | – | – | – | – | IC50 (TOSV; read-out: IC50 (TOSV)): 1.5 µM
16 | CCC(C)c1ccccc1OCCCC(=O)Nc1cnccc1C(=O)O (stereo not drawn) [Example 15] | – | – | – | – | – | – | – | – | ~0.5 | > 25 | – | –
17 | Cc1ccc2nc(COc3ccc(Cl)cc3Cc3ccccc3)oc(=O)c2c1 [Example 21] | – | – | – | – | – | – | – | – | 0.8 | > 100 | – | –
18 | O=C(O)c1ccccc1Nc1ccc(Cc2ccccc2)cc1 [Example 5] | 0.36 | 0.45 | 60 | – | – | 44 | – | – | 0.325 | – | > 1 | CC50 (Vero E6 cells): 77.5 µM
19 | CCC(C)c1ccccc1OCC(=O)Nc1ccc2c(c1C(=O)O)OC(F)(F)O2 (stereo not drawn) [Example 16] | – | – | – | – | – | – | – | – | 4 | 37 | – | –
